Target: T1, Dihydrofolate reductase (Rattus norvegicus, UniProt Q920D2)
T1 sequence (Q920D2 whole entry): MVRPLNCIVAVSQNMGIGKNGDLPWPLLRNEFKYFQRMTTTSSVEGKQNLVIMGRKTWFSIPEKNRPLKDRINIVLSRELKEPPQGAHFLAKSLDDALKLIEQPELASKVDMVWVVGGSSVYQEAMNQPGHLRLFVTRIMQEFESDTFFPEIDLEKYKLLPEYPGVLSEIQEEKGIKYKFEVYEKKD
Assay: Inhibitory activity against dihydrofolate reductase (DHFR) from rat liver
Conditions: read-out: I50

SMILES | IC50 [nM]
Cc1cc(Cc2cnc(N)nc2N)cc(C(C)(C)C)c1N | 370000
CCCCOc1c(CCC)cc(Cc2cnc(N)nc2N)cc1CCC | 15000
Nc1ncc(Cc2cc(I)c(OCCCOc3ccccc3)c(I)c2)c(N)n1 | 1580
CCCc1cc(Cc2cnc(N)nc2N)cc(CC)c1O | 4450
Cc1cc(Cc2cnc(N)nc2N)cc(C)c1O | 71000
CCc1cc(Cc2cnc(N)nc2N)cc(C)c1O | 39000
CCOc1c(CC)cc(Cc2cnc(N)nc2N)cc1CC | 52000
Nc1ncc(Cc2cc(Cl)c(N)c(Cl)c2)c(N)n1 | 130000
COc1cc(Cc2cnc(N)nc2N)ccc1N | 470000
CCCc1cc(Cc2cnc(N)nc2N)cc(CCC)c1OC | 21000
CCc1cc(Cc2cnc(N)nc2N)cc(C(C)CC)c1N (centres undefined) | 27000
COc1c(I)cc(Cc2cnc(N)nc2N)cc1I | 16000
Cc1cc(Cc2cnc(N)nc2N)cc(Cl)c1N | 160000
COc1c(C)cc(Cc2cnc(N)nc2N)cc1C | 250000
CCc1cc(Cc2cnc(N)nc2N)cc(CC)c1O | 16000
Cc1cc(Cc2cnc(N)nc2N)cc(C(C)(C)C)c1O | 120000
CCc1cc(Cc2cnc(N)nc2N)cc(C)c1N | 144000
CC(C)c1cc(Cc2cnc(N)nc2N)cc(C(C)C)c1N | 34000
COc1cc(Cc2cnc(N)nc2N)ccc1O | 35000

SMILES | IC50 [nM]
CCCc1cc(Cc2cnc(N)nc2N)cc(CC)c1OC | 32000
CCc1cc(Cc2cnc(N)nc2N)cc(CC)c1OCCCOc1ccccc1 | 8750
CCc1cc(Cc2cnc(N)nc2N)cc(C)c1OC | 83000
COc1ccc(Cc2cnc(N)nc2N)cc1OC [DIAVERIDINE] | 86000
COc1c(C(C)(C)C)cc(Cc2cnc(N)nc2N)cc1C(C)(C)C | 31000
COc1c(C)cc(Cc2cnc(N)nc2N)cc1C(C)(C)C | 130000
CCc1cc(Cc2cnc(N)nc2N)cc(CC)c1N | 38000
CCc1cc(Cc2cnc(N)nc2N)cc(CC)c1OCCO | 120000
CCCCCCCCCCCCOc1c(CC)cc(Cc2cnc(N)nc2N)cc1CC | 64000
Nc1ncc(Cc2cc(Br)c(N)c(Br)c2)c(N)n1 | 57000
CCCc1cc(Cc2cnc(N)nc2N)cc(CCC)c1O | 2000
CC(C)(C)c1cc(Cc2cnc(N)nc2N)cc(C(C)(C)C)c1O | 34500
CCc1cc(Cc2cnc(N)nc2N)cc(CC)c1OC | 58000
Cc1cc(Cc2cnc(N)nc2N)cc(C)c1N | 380000
COc1cc(Cc2cnc(N)nc2N)cc(OC)c1N | 520000
Nc1ncc(Cc2cc(I)c(O)c(I)c2)c(N)n1 | 9900
CCOc1cc(Cc2cnc(N)nc2N)cc(OCC)c1OCC | 30000
CC(C)c1cc(Cc2cnc(N)nc2N)cc(C(C)C)c1O | 8900
COc1c(C(C)C)cc(Cc2cnc(N)nc2N)cc1C(C)C | 13000

Target: T2, Dihydrofolate reductase (Rattus norvegicus) (UniProt Q920D2)
T2 sequence (whole entry): T1 sequence (Q920D2 whole entry)
Assay: Inhibitory activity against dihydrofolate reductase (DHFR) of Rat liver at a concentration 10 E -6 M
Conditions: not given

SMILES | Inhibition [%]
CCOc1c(C)c(C)c(Cc2cnc(N)nc2N)c(C)c1C | 0

Target: T2, Dihydrofolate reductase (Rattus norvegicus)
Assay: Inhibitory activity against dihydrofolate reductase (DHFR) of Rat liver at a concentration 2 x 10 E -5 M
Conditions: not given

SMILES | Inhibition [%]
CCCCC(CC)COc1c(CC)cc(Cc2cnc(N)nc2N)cc1CC (centres undefined) | 0

Target: Dihydrofolate reductase (Neisseria gonorrhoeae, UniProt P04174)
Sequence (P04174 whole entry): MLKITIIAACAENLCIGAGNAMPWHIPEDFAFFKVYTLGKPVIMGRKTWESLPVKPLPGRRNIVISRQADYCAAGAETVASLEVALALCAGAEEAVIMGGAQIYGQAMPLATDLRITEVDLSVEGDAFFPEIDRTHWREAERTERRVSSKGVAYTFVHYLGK
Assay: Inhibitory activity against dihydrofolate reductase (DHFR) of Neisseria gonorrhoea
Conditions: read-out: I50

SMILES | IC50 [nM]
Cc1cc(Cc2cnc(N)nc2N)cc(C(C)(C)C)c1N | 390
CCCCOc1c(CCC)cc(Cc2cnc(N)nc2N)cc1CCC | 132
Nc1ncc(Cc2cc(I)c(OCCCOc3ccccc3)c(I)c2)c(N)n1 | 43
CCCc1cc(Cc2cnc(N)nc2N)cc(CC)c1O | 49
Cc1cc(Cc2cnc(N)nc2N)cc(C)c1O | 526
CCc1cc(Cc2cnc(N)nc2N)cc(C)c1O | 350
CCOc1c(CC)cc(Cc2cnc(N)nc2N)cc1CC | 356
Nc1ncc(Cc2cc(Cl)c(N)c(Cl)c2)c(N)n1 | 318
CCCc1cc(Cc2cnc(N)nc2N)cc(CCC)c1OC | 60
CCc1cc(Cc2cnc(N)nc2N)cc(C(C)CC)c1N (centres undefined) | 75
COc1c(I)cc(Cc2cnc(N)nc2N)cc1I | 28
COc1cc(Cc2cnc(N)nc2N)cc(OC)c1O [4-HYDROXYTRIMETHOPRIM] | 330
COc1c(C)cc(Cc2cnc(N)nc2N)cc1C | 500
CCc1cc(Cc2cnc(N)nc2N)cc(CC)c1O | 120
Cc1cc(Cc2cnc(N)nc2N)cc(C(C)(C)C)c1O | 259
CCc1cc(Cc2cnc(N)nc2N)cc(C)c1N | 560
CC(C)c1cc(Cc2cnc(N)nc2N)cc(C(C)C)c1N | 137
CCCc1cc(Cc2cnc(N)nc2N)cc(CC)c1OC | 44
CCc1cc(Cc2cnc(N)nc2N)cc(CC)c1OCCCOc1ccccc1 | 64

SMILES | IC50 [nM]
CCc1cc(Cc2cnc(N)nc2N)cc(C)c1OC | 310
COc1ccc(Cc2cnc(N)nc2N)cc1OC [DIAVERIDINE] | 530
COc1c(C(C)(C)C)cc(Cc2cnc(N)nc2N)cc1C(C)(C)C | 58
COc1c(C)cc(Cc2cnc(N)nc2N)cc1C(C)(C)C | 240
CCc1cc(Cc2cnc(N)nc2N)cc(CC)c1N | 107
CCc1cc(Cc2cnc(N)nc2N)cc(CC)c1OCCO | 45
CCCCCCCCCCCCOc1c(CC)cc(Cc2cnc(N)nc2N)cc1CC | 3500
Cc1cc(Cc2cnc(N)nc2N)cc(C(C)C)c1N | 260
Nc1ncc(Cc2cc(Br)c(N)c(Br)c2)c(N)n1 | 93
CCCCC(CC)COc1c(CC)cc(Cc2cnc(N)nc2N)cc1CC (centres undefined) | 319
CCCc1cc(Cc2cnc(N)nc2N)cc(CCC)c1O | 20
CC(C)(C)c1cc(Cc2cnc(N)nc2N)cc(C(C)(C)C)c1O | 61
CCc1cc(Cc2cnc(N)nc2N)cc(CC)c1OC | 155
Cc1cc(Cc2cnc(N)nc2N)cc(C)c1N | 485
COc1cc(Cc2cnc(N)nc2N)cc(OC)c1N | 810
Nc1ncc(Cc2cc(I)c(O)c(I)c2)c(N)n1 | 28
CCOc1cc(Cc2cnc(N)nc2N)cc(OCC)c1OCC | 220
CC(C)c1cc(Cc2cnc(N)nc2N)cc(C(C)C)c1O | 29
COc1c(C(C)C)cc(Cc2cnc(N)nc2N)cc1C(C)C | 63

Target: Bifunctional dihydrofolate reductase-thymidylate synthase (Plasmodium berghei str. ANKA, UniProt Q27713)
Sequence (Q27713 whole entry): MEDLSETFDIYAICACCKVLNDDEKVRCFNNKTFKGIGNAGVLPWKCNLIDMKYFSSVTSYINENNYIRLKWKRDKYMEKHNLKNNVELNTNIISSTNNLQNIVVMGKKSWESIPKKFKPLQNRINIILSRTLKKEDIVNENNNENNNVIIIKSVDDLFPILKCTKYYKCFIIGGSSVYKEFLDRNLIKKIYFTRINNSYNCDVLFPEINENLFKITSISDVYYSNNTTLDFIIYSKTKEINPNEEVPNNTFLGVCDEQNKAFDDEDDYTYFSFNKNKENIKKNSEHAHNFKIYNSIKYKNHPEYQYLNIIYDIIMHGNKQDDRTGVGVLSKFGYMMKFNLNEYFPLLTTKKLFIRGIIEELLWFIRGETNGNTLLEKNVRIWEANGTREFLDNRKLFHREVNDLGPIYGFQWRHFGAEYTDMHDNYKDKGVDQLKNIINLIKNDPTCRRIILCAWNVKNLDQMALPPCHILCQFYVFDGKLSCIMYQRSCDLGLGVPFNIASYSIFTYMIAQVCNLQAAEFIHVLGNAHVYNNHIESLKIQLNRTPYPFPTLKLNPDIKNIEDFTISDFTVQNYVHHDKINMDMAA
Assay: Inhibitory activity against dihydrofolate reductase (DHFR) of Plasmodium berghei
Conditions: read-out: I50

SMILES | IC50 [nM]
CCCCOc1c(CCC)cc(Cc2cnc(N)nc2N)cc1CCC | 5.8
CCCc1cc(Cc2cnc(N)nc2N)cc(CC)c1O | 15
CCOc1c(CC)cc(Cc2cnc(N)nc2N)cc1CC | 35
CCCc1cc(Cc2cnc(N)nc2N)cc(CCC)c1OC | 20
COc1c(I)cc(Cc2cnc(N)nc2N)cc1I | 31
COc1c(C)cc(Cc2cnc(N)nc2N)cc1C | 120
CCc1cc(Cc2cnc(N)nc2N)cc(CC)c1O | 28
CCCc1cc(Cc2cnc(N)nc2N)cc(CC)c1OC | 10
CCc1cc(Cc2cnc(N)nc2N)cc(CC)c1OCCCOc1ccccc1 | 10
CCc1cc(Cc2cnc(N)nc2N)cc(C)c1OC | 120
COc1c(C(C)(C)C)cc(Cc2cnc(N)nc2N)cc1C(C)(C)C | 13
COc1c(C)cc(Cc2cnc(N)nc2N)cc1C(C)(C)C | 77
CCCCCCCCCCCCOc1c(CC)cc(Cc2cnc(N)nc2N)cc1CC | 350
CCCCC(CC)COc1c(CC)cc(Cc2cnc(N)nc2N)cc1CC (centres undefined) | 42
CCCc1cc(Cc2cnc(N)nc2N)cc(CCC)c1O | 5.7
CC(C)(C)c1cc(Cc2cnc(N)nc2N)cc(C(C)(C)C)c1O | 140
CCc1cc(Cc2cnc(N)nc2N)cc(CC)c1OC | 12.1
Nc1ncc(Cc2cc(I)c(O)c(I)c2)c(N)n1 | 53
CCOc1cc(Cc2cnc(N)nc2N)cc(OCC)c1OCC | 7.5
CC(C)c1cc(Cc2cnc(N)nc2N)cc(C(C)C)c1O | 110
COc1c(C(C)C)cc(Cc2cnc(N)nc2N)cc1C(C)C | 23
